From ChEMBL document CHEMBL1201862, “PubChem BioAssay data set” (2004)
Calls of active or inactive are those of the source.

How the values were obtained:
[1] = target: T1, Alkaline phosphatase, tissue-nonspecific isozyme (Homo sapiens, UniProt P05186)
T1 sequence (P05186 whole entry): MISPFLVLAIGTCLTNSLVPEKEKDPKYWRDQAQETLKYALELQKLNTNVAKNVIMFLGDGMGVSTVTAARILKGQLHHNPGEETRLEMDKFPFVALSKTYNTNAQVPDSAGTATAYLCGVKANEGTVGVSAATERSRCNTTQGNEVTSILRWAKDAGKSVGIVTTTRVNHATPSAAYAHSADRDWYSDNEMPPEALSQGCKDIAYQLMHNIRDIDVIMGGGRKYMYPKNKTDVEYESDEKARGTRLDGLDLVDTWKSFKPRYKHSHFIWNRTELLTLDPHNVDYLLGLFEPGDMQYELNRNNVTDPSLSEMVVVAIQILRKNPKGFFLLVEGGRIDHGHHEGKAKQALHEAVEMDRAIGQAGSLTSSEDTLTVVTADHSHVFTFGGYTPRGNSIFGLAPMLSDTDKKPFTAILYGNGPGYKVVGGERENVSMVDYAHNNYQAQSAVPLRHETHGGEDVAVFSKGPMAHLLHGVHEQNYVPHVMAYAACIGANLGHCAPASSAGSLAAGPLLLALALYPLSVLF

[2] = target: T2, Mucolipin-3 (Homo sapiens, UniProt Q8TDD5); assay: Dose response cell-based high-throughput screening assay for agonists of the transient receptor potential channel ML3 (TRPML3). [Related pubchem assays: 1526, 1424, 1448 ]; type: functional
T2 sequence (Q8TDD5 whole entry): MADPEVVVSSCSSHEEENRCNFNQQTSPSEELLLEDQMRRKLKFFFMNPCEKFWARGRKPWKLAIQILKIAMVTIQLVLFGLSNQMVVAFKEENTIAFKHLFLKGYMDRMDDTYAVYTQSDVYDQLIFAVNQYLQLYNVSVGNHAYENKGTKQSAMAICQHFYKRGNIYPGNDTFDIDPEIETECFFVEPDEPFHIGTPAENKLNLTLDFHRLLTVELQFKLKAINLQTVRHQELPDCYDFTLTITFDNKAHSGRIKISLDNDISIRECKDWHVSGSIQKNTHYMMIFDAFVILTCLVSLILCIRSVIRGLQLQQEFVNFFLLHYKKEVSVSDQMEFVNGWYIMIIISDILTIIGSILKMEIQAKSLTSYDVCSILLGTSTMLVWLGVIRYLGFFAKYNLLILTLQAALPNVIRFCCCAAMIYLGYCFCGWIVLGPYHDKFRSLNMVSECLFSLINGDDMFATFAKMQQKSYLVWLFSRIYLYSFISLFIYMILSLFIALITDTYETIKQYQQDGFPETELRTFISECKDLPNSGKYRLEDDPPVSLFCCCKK

[3] = target: Ion channel NompC (Danio rerio, UniProt Q7T1G6); assay: Fluorescence counterscreen assay for TRPML3 agonists: dose response cell-based high-throughput screening assay to identify agonists of the transient receptor potential channel N1 (TRPN1). [Related pubchem assays: 1526, 1424, 1448 ]; type: functional
[4] = target: T3, NADPH oxidase 1 (Homo sapiens, UniProt Q9Y5S8); type: functional, cell-based;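 also: Cell-based assay with luminescence read-out, IC50 derived from inhibitor dose-response curves; intracellular ROS from endogenous NOX1 in intact HT29 colon cancer cells; potency of inhibitors that lower the ROS luminescence signal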
T3 sequence (Q9Y5S8 whole entry): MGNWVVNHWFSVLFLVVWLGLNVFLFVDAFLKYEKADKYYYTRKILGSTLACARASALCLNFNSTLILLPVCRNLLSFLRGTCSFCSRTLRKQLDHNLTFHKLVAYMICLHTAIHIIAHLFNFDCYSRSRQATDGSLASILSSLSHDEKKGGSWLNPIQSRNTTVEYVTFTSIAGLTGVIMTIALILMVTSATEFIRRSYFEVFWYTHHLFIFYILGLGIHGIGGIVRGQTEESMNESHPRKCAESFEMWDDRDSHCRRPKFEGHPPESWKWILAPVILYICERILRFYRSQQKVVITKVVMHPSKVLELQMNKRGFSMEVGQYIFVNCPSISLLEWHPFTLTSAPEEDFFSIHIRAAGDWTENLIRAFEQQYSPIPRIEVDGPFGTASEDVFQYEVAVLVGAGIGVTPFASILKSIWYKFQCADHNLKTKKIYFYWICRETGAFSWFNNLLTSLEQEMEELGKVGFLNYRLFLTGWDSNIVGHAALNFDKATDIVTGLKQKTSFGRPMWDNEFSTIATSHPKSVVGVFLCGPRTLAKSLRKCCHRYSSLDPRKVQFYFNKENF

[5] = target: T4, Eukaryotic translation initiation factor 2-alpha kinase 3 (Homo sapiens, UniProt Q9NZJ5); assay: Dose response cell-based high-throughput screening assay to measure PERK inhibition. [Related pubchem assays: 1416 ]; type: functional
T4 sequence (Q9NZJ5 whole entry): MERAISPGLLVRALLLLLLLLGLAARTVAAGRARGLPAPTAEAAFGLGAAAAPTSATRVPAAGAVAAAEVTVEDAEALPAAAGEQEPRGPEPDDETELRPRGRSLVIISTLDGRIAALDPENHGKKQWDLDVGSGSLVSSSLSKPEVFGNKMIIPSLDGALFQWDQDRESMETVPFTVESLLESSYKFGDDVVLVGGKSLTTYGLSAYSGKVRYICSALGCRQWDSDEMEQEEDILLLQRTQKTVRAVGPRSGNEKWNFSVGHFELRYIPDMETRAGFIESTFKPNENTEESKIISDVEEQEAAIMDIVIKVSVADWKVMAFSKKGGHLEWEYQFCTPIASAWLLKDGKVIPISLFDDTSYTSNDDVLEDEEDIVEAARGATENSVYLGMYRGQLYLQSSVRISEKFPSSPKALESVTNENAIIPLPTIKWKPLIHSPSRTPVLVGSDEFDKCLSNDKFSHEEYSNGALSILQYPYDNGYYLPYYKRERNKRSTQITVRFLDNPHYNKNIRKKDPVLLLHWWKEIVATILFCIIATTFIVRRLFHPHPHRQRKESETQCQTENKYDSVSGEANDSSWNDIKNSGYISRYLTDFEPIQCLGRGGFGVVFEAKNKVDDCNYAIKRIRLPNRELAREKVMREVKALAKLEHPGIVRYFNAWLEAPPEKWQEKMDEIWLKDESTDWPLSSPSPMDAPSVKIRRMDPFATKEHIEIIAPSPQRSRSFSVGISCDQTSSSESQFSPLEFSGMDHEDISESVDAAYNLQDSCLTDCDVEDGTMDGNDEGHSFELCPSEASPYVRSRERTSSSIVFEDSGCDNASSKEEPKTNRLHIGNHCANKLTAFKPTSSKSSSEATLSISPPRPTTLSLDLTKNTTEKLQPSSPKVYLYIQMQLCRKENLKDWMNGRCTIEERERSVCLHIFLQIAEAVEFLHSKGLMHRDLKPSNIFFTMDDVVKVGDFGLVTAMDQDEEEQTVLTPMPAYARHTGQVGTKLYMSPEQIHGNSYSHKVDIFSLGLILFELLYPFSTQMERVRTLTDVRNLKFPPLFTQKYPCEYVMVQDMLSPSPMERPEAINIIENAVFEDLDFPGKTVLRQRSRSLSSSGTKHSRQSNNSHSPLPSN

[6] = target: T4, Eukaryotic translation initiation factor 2-alpha kinase 3; assay: Counterscreen assay for PERK inhibitors: Dose response cell-based high throughput screening assay to measure inhibition of PERK at 6 hours. [Related pubchem assays: 1522, 1416 ]; type: functional
[7] = A Cell Based Secondary Assay To Explore Cytotoxicity of Compounds that Sensitize Mycobacterium Tuberculosis to Beta-Lactam Antibiotics.; type: functional
[8] = target: Paired box protein Pax-8 (Homo sapiens, UniProt Q06710); assay: PAX8 transcriptional activity inhibition in RMG-I – RMG-I cells, luciferase, cherry-pick, dose response (AID 687027); type: functional, cell-based;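 also: luciferase reporter driven by Pax8 target thyroperoxidase promoter measured by SteadyGlo luminescence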
[9] = OVCAR-3 cell viability loss – plate reader, dry powder samples, PAX8 inhibitor project, dose response (AID 743044); type: functional, cell-based
[10] = OVCAR8 cell viability loss – plate reader, dry powder samples, PAX8 project, dose response (AID 743197); type: functional, cell-based; conditions: OVCAR-8
[11] = P. falciparum Dd2 growth inhibitors, dose response, SYBR Green, cherry-picked samples (AID 1159567); type: functional, cell-based
[12] = toxicity to human hepatoma HepG2 cells – cell-based, cherry-picked samples, cytotoxicity control, dose response (AID 1159577); type: functional
[13] = growth inhibition of yeast DHODH-expressing 3D7 parasites – SYBR Green, dry powder samples, dose response (AID 1159570); type: functional, cell-based;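 also: parasite growth measured after 72 hours of compound exposure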
[14] = toxicity to human HepG2 hepatoma cells – cell-based, plate reader, dry powder samples, cytotoxicity control, dose response (AID 1159569); type: functional;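 also: inhibitor potency with signal falling toward the positive control level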
[15] = Dd2 malaria parasite growth inhibition potency – SYBR Green, dry powder samples, dose response (AID 1159566); type: functional, cell-based;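 also: potency for growth inhibition with lower SYBR green DNA signal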
[16] = growth inhibition of PfATP4-mutant resistant parasites – NITD609-resistant line, SYBR Green, dry powder, dose response (AID 1159571); type: functional, cell-based;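 also: parasites synchronized at ring stage by sorbitol before testing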

Ion channel NompC, sequence (Q7T1G6 whole entry): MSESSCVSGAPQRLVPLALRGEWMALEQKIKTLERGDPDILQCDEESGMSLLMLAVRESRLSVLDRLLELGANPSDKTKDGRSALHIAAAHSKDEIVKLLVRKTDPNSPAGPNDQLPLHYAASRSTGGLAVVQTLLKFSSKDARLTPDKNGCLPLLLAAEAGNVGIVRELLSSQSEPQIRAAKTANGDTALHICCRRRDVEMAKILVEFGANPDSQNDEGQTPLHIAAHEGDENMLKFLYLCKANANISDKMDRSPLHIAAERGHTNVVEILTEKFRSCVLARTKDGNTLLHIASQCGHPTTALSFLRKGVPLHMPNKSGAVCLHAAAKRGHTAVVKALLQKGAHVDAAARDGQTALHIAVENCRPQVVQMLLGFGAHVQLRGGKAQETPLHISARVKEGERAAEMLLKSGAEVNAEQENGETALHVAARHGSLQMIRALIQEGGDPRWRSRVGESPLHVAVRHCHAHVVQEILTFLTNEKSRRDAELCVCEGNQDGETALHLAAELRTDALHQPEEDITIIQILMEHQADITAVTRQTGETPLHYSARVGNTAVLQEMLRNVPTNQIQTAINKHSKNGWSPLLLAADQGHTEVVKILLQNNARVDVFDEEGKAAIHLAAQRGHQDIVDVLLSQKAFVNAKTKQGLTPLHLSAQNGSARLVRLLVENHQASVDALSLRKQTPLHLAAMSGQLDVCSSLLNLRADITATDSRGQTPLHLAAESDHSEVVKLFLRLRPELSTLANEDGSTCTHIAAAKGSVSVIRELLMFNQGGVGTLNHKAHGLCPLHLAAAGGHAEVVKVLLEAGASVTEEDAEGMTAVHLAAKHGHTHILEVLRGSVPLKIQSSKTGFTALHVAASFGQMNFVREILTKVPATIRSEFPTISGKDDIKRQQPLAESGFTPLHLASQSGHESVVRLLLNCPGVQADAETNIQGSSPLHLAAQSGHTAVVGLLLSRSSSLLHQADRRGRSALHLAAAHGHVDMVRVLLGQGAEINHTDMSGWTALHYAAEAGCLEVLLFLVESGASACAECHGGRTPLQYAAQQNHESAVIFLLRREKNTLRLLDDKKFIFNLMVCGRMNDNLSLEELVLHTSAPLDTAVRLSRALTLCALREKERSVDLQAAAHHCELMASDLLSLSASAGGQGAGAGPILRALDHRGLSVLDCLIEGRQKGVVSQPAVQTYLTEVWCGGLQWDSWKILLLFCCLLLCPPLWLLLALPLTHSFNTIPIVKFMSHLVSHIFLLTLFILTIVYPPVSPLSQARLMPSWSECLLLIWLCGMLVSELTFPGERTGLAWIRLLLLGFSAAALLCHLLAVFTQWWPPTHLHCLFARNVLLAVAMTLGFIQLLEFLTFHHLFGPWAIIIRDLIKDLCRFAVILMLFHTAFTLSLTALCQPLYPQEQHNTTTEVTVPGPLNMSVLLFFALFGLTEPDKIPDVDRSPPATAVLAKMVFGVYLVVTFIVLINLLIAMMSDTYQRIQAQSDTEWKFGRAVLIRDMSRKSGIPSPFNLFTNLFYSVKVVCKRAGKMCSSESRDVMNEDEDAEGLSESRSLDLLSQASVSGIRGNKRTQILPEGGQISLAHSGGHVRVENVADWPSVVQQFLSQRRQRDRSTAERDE
Paired box protein Pax-8, sequence (Q06710 whole entry): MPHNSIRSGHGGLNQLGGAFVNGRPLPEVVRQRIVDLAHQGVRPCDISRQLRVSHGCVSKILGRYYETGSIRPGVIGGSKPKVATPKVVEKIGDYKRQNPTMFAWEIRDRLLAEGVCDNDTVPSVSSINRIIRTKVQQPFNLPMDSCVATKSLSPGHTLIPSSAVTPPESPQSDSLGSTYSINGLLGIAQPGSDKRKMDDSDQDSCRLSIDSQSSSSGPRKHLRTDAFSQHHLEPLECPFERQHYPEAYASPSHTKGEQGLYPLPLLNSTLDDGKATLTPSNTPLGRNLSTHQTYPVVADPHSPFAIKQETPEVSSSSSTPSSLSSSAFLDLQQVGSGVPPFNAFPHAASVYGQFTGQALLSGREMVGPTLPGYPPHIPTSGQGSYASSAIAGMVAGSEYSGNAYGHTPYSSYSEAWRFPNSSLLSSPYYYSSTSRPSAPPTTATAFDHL

In the case of `COc1ccc(-c2nc3ccc(C)cn3c2NCc2ccc3c(c2)OCO3)cc1`, the EC50 [1] is reported as > 100 µM (not active).
In the case of `CCOC(=O)c1c(NC(=O)COc2ncnc3ccccc23)sc(C)c1C`, the EC50 [1] is reported as > 100 µM (not active).
With `CCNC(=S)N(Cc1cccs1)Cc1cc2cc(OCC)ccc2nc1O` the EC50 [2] was > 29.9 µM (not active) and the EC50 [3] was > 29.9 µM (not active).
For `C=C(NNc1c(Cl)c(Cl)nc(C(=O)O)c1Cl)c1ccc(O)cc1`, the IC50 [4] was 4.45 µM (active).
In the case of `CC(=O)Nc1ccc(NC(=O)Nc2cc(C)cc(C)c2)cc1`, the EC50 [5] is reported as > 55.7 µM (not active) and the EC50 [6] is reported as > 55.7 µM (not active).
With `Nc1c(Cl)cc(-c2csc(N3CCCC3c3nc4cc(Cl)c(N5CCCCC5)cc4n3CCCO)n2)cc1Cl` (stereo not given) the CC50 [7] was > 40 µM (active).
For `COc1ccccc1C#Cc1ccc2c(c1)O[C@@H](CN(C)Cc1cncnc1)[C@H](C)CN([C@H](C)CO)S2(=O)=O`, the AC50 [8] was 2.16 µM (active), the AC50 [9] was 32.6 µM (active) and the AC50 [10] was 29 µM (active).
With `C/C=C/c1ccc([C@H]2[C@H](CO)N(c3nc(CC)cs3)[C@H]2CNC(C)C)cc1` the AC50 [11] was 0.829 µM (active) and the AC50 [12] was 20 µM (active).
With `C[C@@H]1CN([C@@H](C)CO)C(=O)c2cccc(NC(=O)c3ccc(-c4nccs4)cc3)c2O[C@@H]1CN(C)C(=O)Nc1cccc2ccccc12` the AC50 [13] was 0.956 µM (active), the AC50 [14] was 53.3 µM (active) and the AC50 [11] was 2.9 µM (active). The AC50 [15] was 0.334 µM (active), the AC50 [12] was > 39 µM (inactive) and the AC50 [16] was 0.733 µM (active).
In the case of `Oc1ccc(-c2nc(-c3ccccc3)c(-c3ccccc3)[nH]2)cc1`, the IC50 [4] is reported as > 17 µM (not active).
